Results published in paper PMC7069944, “Amino acid levels determine metabolism and CYP450 function of hepatocytes and hepatoma cell lines” (Nature Communications, 2020).
Values joined by “and” are separate entries in the source; they are usually repeats but may differ in a detail not shown here. Equal entries are not always repeated.

Assays:
HepG2 = experiment: Repeated-exposure DILI training compounds, resazurin conversion, HepG2; conditions: repeat exposure
Protocol: (§1) To evaluate the ability to predict hepatotoxicity, we adapted the differentiation assays to a 384-well format. […] As a readout, we evaluated cell viability by resazurin conversion and correlated the results to therapeutic doses (Cmax values).
(§2) PSCs were differentiated in a 384-well format. […] As a negative control, 41 wells were left untreated. HepG2 were seeded at 40,000 cells per well. […] Cells were fixed with 4% PFA. […] Drugs were administrated after 8 h of attachment.

HLC = experiment: Repeated-exposure DILI training compounds, resazurin conversion, HLC; conditions: repeat exposure
Protocol: as §1, §2

HC3X = experiment: Repeated-exposure DILI training compounds, resazurin conversion, HC3X
Protocol: as §1, §2

HC6X = experiment: Repeated-exposure DILI training compounds, resazurin conversion, HC6X; conditions: repeat exposure
Protocol: as §1, §2

Question: Which results are given for `COc1ccccc1Oc1c(NS(=O)(=O)c2ccc(C(C)(C)C)cc2)nc(-c2ncccn2)nc1OCCO` [bosentan]?
Answer: % resazurin conversion (HepG2; HepG2 AAGLY D30, 3 uM): 83.9% and 87.5% and 86.6% and 85% and 90.8% and 89.1%; % resazurin conversion (HepG2; HepG2 AAGLY D30, 5 uM): 103.5% and 109.8% and 105.4% and 106.1% and 101% and 103.7%; % resazurin conversion (HepG2; HepG2 AAGLY D30, 10 uM): 90.8% and 98.2% and 96.3% and 97.7% and 97.3% and 97.5%; % resazurin conversion (HepG2; HepG2 AAGLY D30, 30 uM): 90.6% and 101.6% and 98.2% and 101.9% and 99.2% and 99.7%; % resazurin conversion (HepG2; HepG2 AAGLY D30, 50 uM): 84.4% and 90.1% and 80.4% and 87% and 86.9% and 92.2%; % resazurin conversion (HepG2; HepG2 AAGLY D30, 600 uM): 8% and 8.7% and 8.4% and 8.6% and 8.3% and 9%; % resazurin conversion (HepG2; HepG2 AAGLY D30, 1200 uM): 7.9% and 8.6% and 8% and 8.4% and 8.7%; % resazurin conversion (HepG2; HepG2 CTL D7, 3 uM): 72.9% and 95.8% and 79% and 88.4% and 77.2% and 78.8%; % resazurin conversion (HepG2; HepG2 CTL D7, 5 uM): 73% and 91.1% and 80.4% and 81.6% and 71% and 76.1%; % resazurin conversion (HepG2; HepG2 CTL D7, 10 uM): 80.2% and 87.8% and 81.3% and 100.4% and 83.9% and 90.2%; % resazurin conversion (HepG2; HepG2 CTL D7, 30 uM): 88.1% and 98.7% and 86.3% and 105.4% and 85.7% and 92.4%; % resazurin conversion (HepG2; HepG2 CTL D7, 50 uM): 100.8% and 104.7% and 98% and 123.6% and 67.3% and 101.1%; % resazurin conversion (HepG2; HepG2 CTL D7, 100 uM): 111.8% and 105.3% and 106.2% and 109.9% and 117.5%; % resazurin conversion (HepG2; HepG2 CTL D7, 300 uM): 107% and 119.1% and 111.5% and 146.3% and 120.1% and 110.8%; % resazurin conversion (HepG2; HepG2 CTL D7, 600 uM): 50.2% and 44.9% and 48.2% and 53.5% and 46.5% and 47.5%; % resazurin conversion (HepG2; HepG2 CTL D7, 1200 uM): 40.4% and 38.1% and 40.3% and 39.7% and 40.2% and 39%; % resazurin conversion (HLC; HLC AAGLY D40, 3 uM): 109.3% and 112.7% and 130.6% and 92% and 117.8% and 119.8%; % resazurin conversion (HLC; HLC AAGLY D40, 10 uM): 148.2% and 164.2% and 142.5% and 106% and 129.2% and 90.2%; % resazurin conversion (HLC; HLC AAGLY D40, 30 uM): 132.6% and 125.2% and 98.6% and 133% and 124.8%; % resazurin conversion (HLC; HLC AAGLY D40, 300 uM): 153.6% and 174.4% and 181% and 131.1% and 171.9% and 113.3%; % resazurin conversion (HLC; HLC LDM D40, 3 uM): 65.2% and 80.9% and 104.5% and 116.7% and 90.6% and 90.5%; % resazurin conversion (HLC; HLC LDM D40, 5 uM): 79.3% and 100.8% and 63.5% and 57.3% and 83.2% and 66.4%; % resazurin conversion (HLC; HLC LDM D40, 10 uM): 54.2% and 93.9% and 81.1% and 77.7% and 59.3% and 81.3%; % resazurin conversion (HLC; HLC LDM D40, 50 uM): 60.7% and 70.7% and 67.1% and 86.7% and 80.2% and 104.9%; % resazurin conversion (HLC; HLC LDM D40, 100 uM): 75% and 93.6% and 100.7% and 102.7% and 92.9% and 94.1%; IC50/Cmax (HC3X; human): 20.81; % resazurin conversion (HC3X; repeat exposure, HC3X AAGLY D40, 600 uM): 1159% and 1257% and 1241% and 1301% and 1247% and 1406%; % resazurin conversion (HC6X; HC6X AAGLY D40, 3 uM): 121.3% and 137.4% and 77.6% and 97.3% and 111.3% and 90.5%; % resazurin conversion (HC6X; HC6X AAGLY D40, 5 uM): 110% and 103.2% and 89.1% and 89.6% and 114.4% and 93.7%; % resazurin conversion (HC6X; HC6X AAGLY D40, 10 uM): 131.4% and 134.4% and 92.1% and 126.5% and 93.7% and 145.1%; % resazurin conversion (HC6X; HC6X AAGLY D40, 50 uM): 121.5% and 126.6% and 76.5% and 101.9% and 125.3% and 68.1%; % resazurin conversion (HC6X; HC6X AAGLY D40, 300 uM): 51.6% and 48.9% and 38.5% and 48% and 36.4% and 37.5%; % resazurin conversion (HC6X; HC6X AAGLY D40, 600 uM): 42.8% and 51.2% and 38.6% and 45.8% and 36.3% and 36.8%; % resazurin conversion (HC6X; HC6X AAGLY D40, 1200 uM): 43.6% and 36.9% and 34.8% and 34.9% and 34.2% and 34.3%; % resazurin conversion (HC6X; HC6X AAGLY D40 Remove dox, 5 uM): 141.3% and 131.9% and 106.3% and 141.8% and 135.5% and 84.1%; % resazurin conversion (HC6X; HC6X AAGLY D40 Remove dox, 10 uM): 112.1% and 102.7% and 152.9% and 116.3% and 149.9% and 95.7%
